Structures are written as SMILES.

In assay [1] the target is IKZF3 protein (Homo sapiens (Human), UniProt Q96SW2+Q9UKT9). The experiment in a line: Western blot, substrate protein degradation in hPBMC. The format is cell-based. As to conditions: 24 h, 50 nM. From the text: (§1) The supernatant, containing the total cellular protein, was aspirated.
The target of assay [2] is IKZF1 protein (Homo sapiens (Human), UniProt Q13422+Q96SW2). The description is as above. As to conditions: 24 h, 50 nM. Format: cell-based.
Description: as §1

Assay [3] has as its system MM.1S cells. The experiment in a line: Tumor cell proliferation inhibition, CCK-8 kit, 96 h. As to conditions: Homo sapiens, MM1.S, read-out: IC50 for inhibiting the proliferation of tumor cells, MM.1S cell. The format is cell-based. The method, then: (§2) The tumor cells used herein were cultured in RPMI 1640 medium supplemented with 10% FBS, penicillin to a final concentration of 100 U/mL, and streptomycin to a final concentration of 100 μg/mL, at 37° C. in an incubator with 5% CO2. Prior to experimentation, all cells used were correctly identified by STR profiling, and tested negative for Mycoplasma through routine screenings.
(§3) After 24 h, 100 μL of the inoculated cells were treated with 0.5 μL of the compounds of the present disclosure (including the compounds in Table 1, and Examples compounds) in DMSO at 10 different successively decreasing concentrations (starting at a maximum concentration of 10 μM; 5-fold serial dilutions). […] The growth inhibition of the compounds of the present disclosure on the cells was plotted using Prism Graphpad software, and the IC50 values of the compounds of the present disclosure were calculated.
On the technique in general: Tetrazolium dyes change colour on reduction, which living cells bring about.

For assay [4], the system named is Daudi cells. The description is as above. Format: cell-based. As to conditions: Homo sapiens, Daudi, read-out: IC50 for inhibiting the proliferation of tumor cells, Daudi cell. The method, then: as §2, §3
Assay [5] relates to TMD8 cells. The assay is described as above. The note with it: Homo sapiens, TMD8, 96 h, read-out: IC50 for inhibiting the proliferation of tumor cells, TMD8 cell. Format: cell-based. How it is done: as §2, §3
For assay [6], the system named is Mino cells. The assay is described as above. The note with it: Homo sapiens, MINO, read-out: IC50 for inhibiting the proliferation of tumor cells, Mino cell. The format is cell-based. The method, then: as §2, §3
The target of assay [7] is GSPT1 protein (Homo sapiens (Human), UniProt P15170+Q96SW2). As to conditions: hPBMC, 24 h, 50 nM.
Description: as §1

Sequence of IKZF1 protein (Q13422 whole entry): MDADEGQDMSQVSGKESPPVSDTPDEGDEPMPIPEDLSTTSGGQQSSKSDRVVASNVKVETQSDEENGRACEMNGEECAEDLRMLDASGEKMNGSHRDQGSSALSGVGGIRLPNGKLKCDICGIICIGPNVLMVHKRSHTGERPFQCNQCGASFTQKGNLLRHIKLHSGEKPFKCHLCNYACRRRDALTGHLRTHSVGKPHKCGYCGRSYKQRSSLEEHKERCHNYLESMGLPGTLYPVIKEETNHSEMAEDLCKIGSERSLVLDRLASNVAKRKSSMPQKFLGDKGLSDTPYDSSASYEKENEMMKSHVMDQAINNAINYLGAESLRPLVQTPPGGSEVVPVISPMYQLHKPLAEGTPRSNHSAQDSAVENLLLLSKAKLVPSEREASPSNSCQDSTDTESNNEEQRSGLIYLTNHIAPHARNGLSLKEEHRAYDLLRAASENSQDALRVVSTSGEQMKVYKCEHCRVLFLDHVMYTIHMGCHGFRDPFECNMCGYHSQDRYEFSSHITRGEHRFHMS
Sequence of IKZF1 protein (Q96SW2 whole entry): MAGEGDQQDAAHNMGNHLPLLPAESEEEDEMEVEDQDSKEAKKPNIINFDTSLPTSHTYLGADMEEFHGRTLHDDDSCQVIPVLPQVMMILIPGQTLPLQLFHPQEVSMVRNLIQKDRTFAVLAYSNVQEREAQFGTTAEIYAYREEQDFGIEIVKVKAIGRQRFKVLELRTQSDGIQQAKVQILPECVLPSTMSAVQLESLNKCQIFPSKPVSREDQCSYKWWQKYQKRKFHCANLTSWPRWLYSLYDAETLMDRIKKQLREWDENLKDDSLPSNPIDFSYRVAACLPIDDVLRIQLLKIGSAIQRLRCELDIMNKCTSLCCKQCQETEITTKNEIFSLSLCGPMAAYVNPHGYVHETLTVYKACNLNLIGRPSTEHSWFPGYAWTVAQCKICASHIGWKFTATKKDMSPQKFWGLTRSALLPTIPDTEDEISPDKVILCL
Sequence of IKZF1 protein (Q16531 whole entry partner): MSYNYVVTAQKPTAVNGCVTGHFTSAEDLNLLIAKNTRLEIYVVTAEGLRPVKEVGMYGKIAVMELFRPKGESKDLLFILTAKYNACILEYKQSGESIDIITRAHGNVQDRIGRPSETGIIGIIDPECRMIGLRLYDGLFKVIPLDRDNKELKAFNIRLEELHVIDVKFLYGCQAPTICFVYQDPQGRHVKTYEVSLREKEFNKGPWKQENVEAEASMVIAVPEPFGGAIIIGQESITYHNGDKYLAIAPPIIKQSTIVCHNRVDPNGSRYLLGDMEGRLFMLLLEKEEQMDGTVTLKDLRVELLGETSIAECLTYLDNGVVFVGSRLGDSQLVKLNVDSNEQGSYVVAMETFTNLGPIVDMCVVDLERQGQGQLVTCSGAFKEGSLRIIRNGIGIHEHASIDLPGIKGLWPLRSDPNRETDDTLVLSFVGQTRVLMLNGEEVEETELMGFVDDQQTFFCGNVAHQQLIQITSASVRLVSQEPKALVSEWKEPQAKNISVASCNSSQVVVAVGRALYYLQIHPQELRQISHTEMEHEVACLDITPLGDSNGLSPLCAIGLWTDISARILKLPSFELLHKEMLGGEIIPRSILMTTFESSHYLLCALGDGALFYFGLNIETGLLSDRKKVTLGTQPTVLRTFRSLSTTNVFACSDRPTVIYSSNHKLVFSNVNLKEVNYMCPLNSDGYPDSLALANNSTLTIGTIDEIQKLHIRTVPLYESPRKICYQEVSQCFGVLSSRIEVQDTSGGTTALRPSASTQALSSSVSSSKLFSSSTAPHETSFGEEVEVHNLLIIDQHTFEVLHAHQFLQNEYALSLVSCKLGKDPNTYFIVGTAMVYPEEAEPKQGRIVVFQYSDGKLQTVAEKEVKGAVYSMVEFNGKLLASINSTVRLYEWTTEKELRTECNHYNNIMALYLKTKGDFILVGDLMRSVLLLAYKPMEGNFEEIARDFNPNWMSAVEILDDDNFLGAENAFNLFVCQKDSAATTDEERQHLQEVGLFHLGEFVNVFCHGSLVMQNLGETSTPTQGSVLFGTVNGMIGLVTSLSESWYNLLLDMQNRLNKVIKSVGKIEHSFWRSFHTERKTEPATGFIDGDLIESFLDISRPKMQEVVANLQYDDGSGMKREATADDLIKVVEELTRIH
Sequence of IKZF3 protein (Q9UKT9 whole entry): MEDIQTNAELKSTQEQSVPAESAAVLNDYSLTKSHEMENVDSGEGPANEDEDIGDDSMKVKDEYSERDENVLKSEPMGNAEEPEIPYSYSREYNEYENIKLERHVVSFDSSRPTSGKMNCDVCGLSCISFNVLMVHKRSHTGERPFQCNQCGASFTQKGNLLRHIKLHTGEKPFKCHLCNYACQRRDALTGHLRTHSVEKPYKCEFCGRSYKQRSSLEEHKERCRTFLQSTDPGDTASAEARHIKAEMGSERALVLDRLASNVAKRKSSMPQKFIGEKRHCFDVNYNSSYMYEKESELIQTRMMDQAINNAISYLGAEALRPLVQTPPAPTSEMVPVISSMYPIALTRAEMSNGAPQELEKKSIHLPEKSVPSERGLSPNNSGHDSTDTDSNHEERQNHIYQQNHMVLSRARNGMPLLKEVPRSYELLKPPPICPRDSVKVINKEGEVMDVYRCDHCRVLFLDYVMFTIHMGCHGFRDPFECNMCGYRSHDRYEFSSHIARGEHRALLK
Sequence of IKZF3 protein (Q96SW2 whole entry): as the sequence (Q96SW2 whole entry) above
Sequence of IKZF3 protein (Q16531 whole entry partner): as the sequence (Q16531 whole entry partner) above
Sequence of GSPT1 protein (P15170 whole entry, looked up): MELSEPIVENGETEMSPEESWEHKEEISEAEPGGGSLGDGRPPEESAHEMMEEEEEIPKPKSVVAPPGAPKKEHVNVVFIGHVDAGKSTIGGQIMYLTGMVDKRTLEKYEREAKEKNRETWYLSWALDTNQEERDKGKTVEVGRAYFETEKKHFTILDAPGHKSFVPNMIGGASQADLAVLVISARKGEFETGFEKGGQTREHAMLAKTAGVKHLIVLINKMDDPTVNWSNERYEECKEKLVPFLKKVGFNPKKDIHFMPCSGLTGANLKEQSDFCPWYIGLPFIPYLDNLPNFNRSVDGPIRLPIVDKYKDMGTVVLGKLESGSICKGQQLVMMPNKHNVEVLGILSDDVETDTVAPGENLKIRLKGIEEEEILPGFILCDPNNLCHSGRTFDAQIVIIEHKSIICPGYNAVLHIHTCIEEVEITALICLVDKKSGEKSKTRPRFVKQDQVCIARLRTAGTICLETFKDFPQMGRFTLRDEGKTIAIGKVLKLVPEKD
Sequence of GSPT1 protein (Q96SW2 whole entry, looked up): as the sequence (Q96SW2 whole entry) above
Sequence of GSPT1 protein (Q16531 whole entry partner, looked up): as the sequence (Q16531 whole entry partner) above

On to `Nc1cccc2c1C(=O)N(C1CCC(=O)NC1=O)C2=O` (stereo not shown) [pomalidomide, reference compound], for which the “degradation of IKZF3 protein” value in assay [1] was “does not degrade”. For the same compound, the “degradation of IKZF1 protein” value in assay [2] is listed as “does not degrade”. Further, the IC50 was in the range of 100 to 500 nM in assay [3], 1000 to 5000 nM in assay [4], 100 to 500 nM in assay [5] and 100 to 500 nM in assay [6]. Besides, the “degradation of GSPT1 protein” value in assay [7] is “does not degrade”.
